In the NIST ThermoML archive (doi:10.1016/j.fluid.2005.07.009):
± gives the expanded uncertainty stated by the source.

How the values were obtained:
[1] = Crystal 1; DTA
[2] = molar heat capacity at constant pressure; details: 101.33 kPa, Small sample (50 mg) DSC
[3] = Molar enthalpy of transition or fusion; details: DSC

NCCCN [1,3-propanediamine]
Details	Triple point temperature [K]
[1]	262.19 ± 0.5

[2]
Details	molar heat capacity at constant pressure [J/K/mol]
210.17 K, Crystal 2	95.15 ± 1.9
211.63 K, Crystal 2	98.6 ± 2
212.38 K, Crystal 2	99.24 ± 2
213.45 K, Crystal 2	100.56 ± 2
214.52 K, Crystal 2	101.65 ± 2
215.39 K, Crystal 2	102.15 ± 2
216.89 K, Crystal 2	102.21 ± 2
217.39 K, Crystal 2	102.47 ± 2
218.2 K, Crystal 2	103.01 ± 2.1
219.56 K, Crystal 2	103.15 ± 2.1
220.98 K, Crystal 2	103.33 ± 2.1
221.6 K, Crystal 2	104.53 ± 2.1
222.57 K, Crystal 2	105.45 ± 2.1
223.61 K, Crystal 2	106.47 ± 2.1
224.16 K, Crystal 2	106.75 ± 2.1
225.7 K, Crystal 2	106.91 ± 2.1
226.44 K, Crystal 2	107.67 ± 2.1
226.87 K, Crystal 2	108.07 ± 2.2
228.09 K, Crystal 2	108.1 ± 2.2
229.51 K, Crystal 2	108.47 ± 2.2
230.13 K, Crystal 2	109.74 ± 2.2
231.59 K, Crystal 2	110.88 ± 2.2
232.5 K, Crystal 2	111.31 ± 2.2
233.79 K, Crystal 2	111.43 ± 2.2
234.58 K, Crystal 2	113.62 ± 2.3
235.36 K, Crystal 2	115.41 ± 2.3
237.9 K, Crystal 2	116.57 ± 2.3
238.39 K, Crystal 2	116.7 ± 2.3
239.37 K, Crystal 2	117.02 ± 2.3
240.41 K, Crystal 2	119.05 ± 2.4
269.31 K, Liquid	200.32 ± 4
271.34 K, Liquid	200.44 ± 4
273.29 K, Liquid	200.87 ± 4
275.36 K, Liquid	200.94 ± 4
277.41 K, Liquid	201.41 ± 4
279.63 K, Liquid	201.51 ± 4
281.55 K, Liquid	201.82 ± 4
283.37 K, Liquid	202.03 ± 4
285.47 K, Liquid	202.29 ± 4
287.35 K, Liquid	202.53 ± 4
289.23 K, Liquid	202.79 ± 4.1
291.28 K, Liquid	203.12 ± 4.1
293.27 K, Liquid	203.44 ± 4.1
295.53 K, Liquid	204.02 ± 4.1
297.16 K, Liquid	204.35 ± 4.1
299.44 K, Liquid	204.4 ± 4.1
302.13 K, Liquid	204.56 ± 4.1
304.68 K, Liquid	204.87 ± 4.1
306.46 K, Liquid	204.95 ± 4.1
308.51 K, Liquid	205.44 ± 4.1
310.56 K, Liquid	205.49 ± 4.1
312.42 K, Liquid	205.78 ± 4.1
315.65 K, Liquid	206.16 ± 4.1
317.6 K, Liquid	206.28 ± 4.1
320.27 K, Liquid	206.67 ± 4.1
322.36 K, Liquid	206.76 ± 4.1
325.51 K, Liquid	207.27 ± 4.2
327.54 K, Liquid	207.43 ± 4.2
330.44 K, Liquid	207.85 ± 4.2
333.46 K, Liquid	207.99 ± 4.2

Details	Molar enthalpy of transition or fusion [kcal/mol]
[3], Crystal 1	5.34 ± 0.158

CCCCCCCCCCN [1-decanamine]
[2]
Details	molar heat capacity at constant pressure [J/K/mol]
260.31 K, Crystal	259.31 ± 5.2
260.64 K, Crystal	260.44 ± 5.2
260.93 K, Crystal	261.21 ± 5.2
261.39 K, Crystal	261.42 ± 5.2
261.62 K, Crystal	262.06 ± 5.2
261.99 K, Crystal	263.4 ± 5.3
262.32 K, Crystal	263.89 ± 5.3
262.67 K, Crystal	264.94 ± 5.3
262.94 K, Crystal	265.77 ± 5.3
263.34 K, Crystal	266.8 ± 5.3
263.61 K, Crystal	266.97 ± 5.3
263.92 K, Crystal	267.74 ± 5.4
264.39 K, Crystal	269.3 ± 5.4
264.62 K, Crystal	269.42 ± 5.4
264.91 K, Crystal	270.38 ± 5.4
265.33 K, Crystal	271.97 ± 5.4
265.61 K, Crystal	272.3 ± 5.5
265.95 K, Crystal	273.03 ± 5.5
266.38 K, Crystal	274.58 ± 5.5
266.67 K, Crystal	275.4 ± 5.5
266.96 K, Crystal	275.97 ± 5.5
267.36 K, Crystal	277.46 ± 5.5
267.62 K, Crystal	278.39 ± 5.6
267.94 K, Crystal	279.27 ± 5.6
268.33 K, Crystal	280.36 ± 5.6
268.66 K, Crystal	281.82 ± 5.6
268.95 K, Crystal	282.79 ± 5.7
269.32 K, Crystal	283.64 ± 5.7
269.63 K, Crystal	284.29 ± 5.7
270.21 K, Crystal	285.94 ± 5.7
298.11 K, Liquid	372.55 ± 7.5
299.64 K, Liquid	373.35 ± 7.5
300.38 K, Liquid	373.78 ± 7.5
301.27 K, Liquid	373.82 ± 7.5
302.37 K, Liquid	374.25 ± 7.5
303.41 K, Liquid	374.33 ± 7.5
304.05 K, Liquid	374.34 ± 7.5
305.25 K, Liquid	374.39 ± 7.5
306.31 K, Liquid	374.86 ± 7.5
307.28 K, Liquid	375.02 ± 7.5
308.4 K, Liquid	375.08 ± 7.5
309.24 K, Liquid	375.35 ± 7.5
310.32 K, Liquid	375.6 ± 7.5
311.09 K, Liquid	375.9 ± 7.5
312.37 K, Liquid	376.23 ± 7.5
313.36 K, Liquid	376.31 ± 7.5
314.28 K, Liquid	376.34 ± 7.5
315.23 K, Liquid	376.91 ± 7.5
316.39 K, Liquid	377.46 ± 7.5
317.53 K, Liquid	377.49 ± 7.5
318.23 K, Liquid	377.55 ± 7.5
319.33 K, Liquid	377.88 ± 7.6
320.09 K, Liquid	377.93 ± 7.6
321.19 K, Liquid	377.99 ± 7.6
322.08 K, Liquid	378.21 ± 7.6
323.45 K, Liquid	378.65 ± 7.6
324.17 K, Liquid	379.09 ± 7.6
325 K, Liquid	379.38 ± 7.6
326.2 K, Liquid	379.69 ± 7.6
327.09 K, Liquid	379.8 ± 7.6
328.21 K, Liquid	379.88 ± 7.6
329.22 K, Liquid	380.68 ± 7.6
330.18 K, Liquid	380.93 ± 7.6
331.23 K, Liquid	381.19 ± 7.6
332.31 K, Liquid	381.58 ± 7.6
333.26 K, Liquid	382.32 ± 7.7

Details	Molar enthalpy of transition or fusion [kcal/mol]
[3], Crystal	10.2 ± 0.287

CCCCCCN [1-hexanamine]
[2]
Details	molar heat capacity at constant pressure [J/K/mol]
205.12 K, Crystal	135.48 ± 2.7
206.53 K, Crystal	137.42 ± 2.8
207.27 K, Crystal	138.49 ± 2.8
208.18 K, Crystal	140.02 ± 2.8
209.16 K, Crystal	140.47 ± 2.8
210.21 K, Crystal	141.21 ± 2.8
211.81 K, Crystal	141.65 ± 2.8
212.3 K, Crystal	141.8 ± 2.8
213.41 K, Crystal	141.86 ± 2.8
214.27 K, Crystal	141.99 ± 2.8
215.45 K, Crystal	143.94 ± 2.9
216.17 K, Crystal	144.89 ± 2.9
217.45 K, Crystal	145.13 ± 2.9
218.13 K, Crystal	145.21 ± 2.9
219.48 K, Crystal	146.21 ± 2.9
220.34 K, Crystal	147.15 ± 2.9
221.19 K, Crystal	148.86 ± 3
222.04 K, Crystal	149.71 ± 3
223.38 K, Crystal	151.47 ± 3
224.66 K, Crystal	152.29 ± 3
225.39 K, Crystal	153.27 ± 3.1
226.42 K, Crystal	155.08 ± 3.1
228.17 K, Crystal	156.72 ± 3.1
230.11 K, Crystal	160.13 ± 3.2
267.26 K, Liquid	248.4 ± 5
268.63 K, Liquid	248.52 ± 5
269.54 K, Liquid	248.61 ± 5
270.16 K, Liquid	248.66 ± 5
271.24 K, Liquid	248.67 ± 5
272.69 K, Liquid	248.95 ± 5
273.56 K, Liquid	249.01 ± 5
274.18 K, Liquid	249.09 ± 5
275.88 K, Liquid	249.12 ± 5
276.66 K, Liquid	249.26 ± 5
277.16 K, Liquid	249.31 ± 5
278.69 K, Liquid	249.34 ± 5
279.94 K, Liquid	249.36 ± 5
280.47 K, Liquid	249.45 ± 5
281.8 K, Liquid	249.47 ± 5
282.34 K, Liquid	249.48 ± 5
283.41 K, Liquid	249.51 ± 5
284.45 K, Liquid	249.55 ± 5
285.4 K, Liquid	249.79 ± 5
286.56 K, Liquid	249.85 ± 5
287.39 K, Liquid	249.86 ± 5
288.43 K, Liquid	250.09 ± 5
289.09 K, Liquid	250.12 ± 5
290.21 K, Liquid	250.23 ± 5
292.36 K, Liquid	250.46 ± 5
293.15 K, Liquid	250.5 ± 5
295.59 K, Liquid	250.98 ± 5

Details	Molar enthalpy of transition or fusion [kcal/mol]
[3], Crystal	5.98 ± 0.174
